Test results as given in paper PMC8066402 (The AAPS journal, 2020).

Target: T1, Monocarboxylate transporter 1 (MCT1) (Mus musculus, UniProt P53986)
T1 sequence (P53986 1-493): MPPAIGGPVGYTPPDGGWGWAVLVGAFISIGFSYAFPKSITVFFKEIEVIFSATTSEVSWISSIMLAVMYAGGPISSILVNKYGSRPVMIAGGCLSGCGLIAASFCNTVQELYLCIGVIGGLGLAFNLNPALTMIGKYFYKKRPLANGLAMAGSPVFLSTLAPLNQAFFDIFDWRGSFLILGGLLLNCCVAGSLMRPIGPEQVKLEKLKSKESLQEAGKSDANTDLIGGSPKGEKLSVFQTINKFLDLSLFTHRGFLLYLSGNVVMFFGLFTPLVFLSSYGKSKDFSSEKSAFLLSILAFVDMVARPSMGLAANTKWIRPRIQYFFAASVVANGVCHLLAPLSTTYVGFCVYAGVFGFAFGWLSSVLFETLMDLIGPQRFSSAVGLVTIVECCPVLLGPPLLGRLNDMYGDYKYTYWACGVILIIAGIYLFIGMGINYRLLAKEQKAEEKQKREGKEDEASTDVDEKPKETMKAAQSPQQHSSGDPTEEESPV
T1 sequence (P18572 22-389 partner): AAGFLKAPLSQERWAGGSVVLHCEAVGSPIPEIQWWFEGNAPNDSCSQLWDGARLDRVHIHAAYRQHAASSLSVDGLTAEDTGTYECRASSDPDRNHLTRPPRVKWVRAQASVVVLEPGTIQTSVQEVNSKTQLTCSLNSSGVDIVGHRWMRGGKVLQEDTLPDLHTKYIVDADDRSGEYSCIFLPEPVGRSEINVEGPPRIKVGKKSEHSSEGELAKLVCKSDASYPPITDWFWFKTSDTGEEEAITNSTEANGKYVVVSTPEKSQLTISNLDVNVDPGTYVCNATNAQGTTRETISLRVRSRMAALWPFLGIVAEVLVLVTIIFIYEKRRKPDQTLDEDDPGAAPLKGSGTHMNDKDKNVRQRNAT
Test: inhibition of radiolabeled L-lactate uptake in 4T1 cells
Type: cell-based

SMILES	IC50
N#C/C(=C\c1ccc(O)cc1)C(=O)O [CHC, α-cyano-4-hydroxycinnamic acid]	7.57 ± 15.2 mM
Cc1[nH]nc(C(F)(F)F)c1Cc1sc2c(c1C(=O)N1C[C@](C)(O)CO1)c(=O)n(C)c(=O)n2C(C)C [AZD3965]	1.7e-05 ± 3.6e-06 mM
